# Laboratory results from ChEMBL document CHEMBL4477227, “Synthesis and antibacterial evaluation of macrocyclic diarylheptanoid derivatives” (Bioorg Med Chem Lett, 2016).
# Tests used:
# [1] = test system: Mycobacterium tuberculosis; experiment: Antitubercular activity against Mycobacterium tuberculosis H37Rv by microbroth dilution method; type: functional; conditions: Mycobacterium tuberculosis, H37Rv; read-out: MIC
# [2] = test system: Bacillus anthracis; experiment: Antibacterial activity against Bacillus anthracis Sterne 34F2 by microbroth dilution method; type: functional; conditions: Bacillus anthracis, Sterne 34F2; read-out: MIC
# [3] = test system: Enterococcus faecalis; experiment: Antibacterial activity against Enterococcus faecalis ATCC 33186 by microbroth dilution method; type: functional; conditions: Enterococcus faecalis, ATCC 33186; read-out: MIC
# [4] = test system: Staphylococcus aureus; experiment: Antibacterial activity against methicillin-sensitive Staphylococcus aureus ATCC 29213 by microbroth dilution method; type: functional; conditions: Staphylococcus aureus, ATCC 29213; read-out: MIC
# [5] = test system: Staphylococcus aureus; experiment: Antibacterial activity against methicillin-resistant Staphylococcus aureus NRS70 by microbroth dilution method; type: functional; conditions: Staphylococcus aureus, NRS70; read-out: MIC
# [6] = test system: Streptococcus pyogenes; experiment: Antibacterial activity against Streptococcus pyogenes ATCC 700294 by microbroth dilution method; type: functional; conditions: Streptococcus pyogenes, ATCC 700294; read-out: MIC
# [7] = test system: Streptococcus pneumoniae; experiment: Antibacterial activity against Streptococcus pneumoniae R6 by microbroth dilution method; type: functional; conditions: Streptococcus pneumoniae, R6; read-out: MIC
# [8] = test system: Bacillus subtilis; experiment: Antibacterial activity against Bacillus subtilis ATCC 23857 by microbroth dilution method; type: functional; conditions: Bacillus subtilis, ATCC 23857; read-out: MIC
# [9] = test system: Acinetobacter baumannii; experiment: Antibacterial activity against Acinetobacter baumannii ATCC 19606 by microbroth dilution method; type: functional, ATCC 19606 = CIP 70.34 = JCM 6841; conditions: Acinetobacter baumannii, ATCC 19606 = CIP 70.34 = JCM 6841; read-out: MIC
# [10] = test system: Escherichia coli; experiment: Antibacterial activity against Escherichia coli K-12 by microbroth dilution method; type: functional
# [11] = test system: Escherichia coli; experiment: Antibacterial activity against Escherichia coli harboring TolC deletion mutant by microbroth dilution method; type: functional; conditions: Escherichia coli; read-out: MIC
# [12] = test system: Burkholderia cepacia; experiment: Antibacterial activity against Burkholderia cepacia ATCC 25416 by microbroth dilution method; type: functional
# [13] = test system: Klebsiella pneumoniae; experiment: Antibacterial activity against Klebsiella pneumoniae ATCC 33495 by microbroth dilution method; type: functional
# [14] = test system: Proteus mirabilis; experiment: Antibacterial activity against Proteus mirabilis ATCC 25933 by microbroth dilution method; type: functional
# [15] = test system: Proteus vulgaris; experiment: Antibacterial activity against Proteus vulgaris ATCC 33420 by microbroth dilution method; type: functional
# [16] = test system: Pseudomonas aeruginosa; experiment: Antibacterial activity against Pseudomonas aeruginosa PAO1 by microbroth dilution method; type: functional
# [17] = test system: Vero; experiment: Cytotoxicity against African green monkey Vero cells assessed as reduction in cell viability after 72 hrs by CellTiterGlo assay; type: cell-based; conditions: Chlorocebus sabaeus
# [18] = test system: J774.1; experiment: Inhibition of LPS-induced NO production in mouse J774.1 cells after 24 by Griess assay; type: functional, cell-based
SMILES,MIC [1] [µg/mL],MIC [2] [µg/mL],MIC [3] [µg/mL],MIC [4] [µg/mL],MIC [5] [µg/mL],MIC [6] [µg/mL],MIC [7] [µg/mL],MIC [8] [µg/mL],MIC [9] [µg/mL],MIC [10] [µg/mL],MIC [11] [µg/mL],MIC [12] [µg/mL],MIC [13] [µg/mL],MIC [14] [µg/mL],MIC [15] [µg/mL],MIC [16] [µg/mL],IC50 [17] [µg/mL],IC50 [18] [µM]
COc1ccc2cc1Oc1cc(ccc1OC)CCC(NC/C=C(\C)CCC=C(C)C)CCCC2 (centres undefined),12.5,12.5,12.5,12.5,6.25,25,50,3.12,25,50,6.25,> 100,> 100,> 100,> 100,> 100,5.6,–
Oc1ccc2cc1Oc1cc(ccc1O)CCC(NCCc1ccccc1)CCCC2 (centres undefined),25,50,50,> 100,50,50,50,25,50,100,25,> 100,> 100,> 100,> 100,> 100,11.1,–
COc1ccc2cc1Oc1ccc(cc1)CCC(NCCc1ccc(F)cc1)CCCC2 (centres undefined),12.5,12.5,12.5,12.5,6.25,25,50,6.25,50,> 100,6.25,> 100,> 100,> 100,> 100,> 100,3.7,–
COc1ccc2cc1Oc1cc(ccc1OC)CCC(NCCc1ccc(Cl)cc1)CCCC2 (centres undefined),25,12.5,12.5,12.5,12.5,12.5,25,6.25,25,> 100,6.25,> 100,> 100,> 100,> 100,> 100,6.8,–
COc1ccc2cc1Oc1cc(ccc1OC)CCC(NCCc1ccc(Br)cc1)CCCC2 (centres undefined),25,12.5,12.5,12.5,12.5,50,50,6.25,50,> 100,12.5,> 100,> 100,> 100,> 100,> 100,6.9,–
COc1ccc2cc1Oc1cc(ccc1OC)CCC(NCCc1ccc(F)cc1)CCCC2 (centres undefined),25,25,25,25,12.5,25,50,12.5,25,> 100,12.5,> 100,> 100,> 100,> 100,> 100,7.3,–
COc1ccc2cc1Oc1cc(ccc1OC)CCC(NC(=O)CCc1ccccc1)CCCC2 (centres undefined),> 100,> 100,> 100,> 100,> 100,> 100,> 100,> 100,> 100,> 100,> 100,> 100,> 100,> 100,> 100,> 100,–,–
COc1ccc2cc1Oc1cc(ccc1OC)CCC(OC(=O)NCc1ccccc1)CCCC2 (centres undefined),> 100,> 100,> 100,> 100,> 100,> 100,> 100,> 100,> 100,> 100,> 100,> 100,> 100,> 100,> 100,> 100,–,–
COc1ccc2cc1Oc1cc(ccc1OC)CCC(OC(=O)Cc1ccccc1)CCCC2 (centres undefined),> 100,> 100,> 100,> 100,> 100,> 100,> 100,> 100,> 100,> 100,> 100,> 100,> 100,> 100,> 100,> 100,–,–
COc1ccc2cc1Oc1cc(ccc1OC)CCC(NCCc1ccc3ccccc3c1)CCCC2 (centres undefined),25,12.5,12.5,12.5,6.25,12.5,25,6.25,> 100,> 100,6.25,> 100,> 100,> 100,> 100,> 100,7,–
O=C1CCCCc2ccc(OC(=O)c3ccccc3)c(c2)Oc2ccc(cc2)CC1,–,–,–,–,–,–,–,–,–,–,–,–,–,–,–,–,–,13
COc1ccc2cc1Oc1cc(ccc1OC)CCC(OS(=O)(=O)c1ccc(C)cc1)CCCC2 (centres undefined),> 100,> 100,100,> 100,100,> 100,> 100,> 100,> 100,> 100,> 100,> 100,> 100,> 100,> 100,> 100,–,–
